Test results published in patent EP1935986B1, “Luminogenic and fluorogenic compounds and methods to detect molecules or conditions” (priority 2005, dated 2006).

Tests used:
[1] = tested on: thermostable luciferase (Luc 146-1H2); experiment: Residual thermostable luciferase activity after reaction with luciferin derivatives (Steady Glo); format: biochemical
Method: (§1) This stock was used to produce enzyme stock solution having of 200 µg/ml enzyme solution in 1 mg/ml BSA, 200 mM HEPES buffer, pH 8.0, 20 mM MgCl2.
(§2) Solutions were made using a 1 M DTT solution, pH adjusted to 8.0, a 20 mM Coenzyme A solution in water (both described in examples above), a 100 mM ATP solution and water to create the following solutions: Sol'A, 100 µM ATP; Sol'B, 100 µM ATP, 4 mM Coenzyme A; Sol'n C, 100 µM ATP, 400 mM DTT, and; Sol'n D, 100 µM ATP, 4 mM Coenzyme A and 400 mM DTT.
(§3) After assembly, the reactions were initiated by addition of 25 µl of the thermostable luciferase stock solution above and mixing the tube contents. A 50 µl sample was immediately removed and placed in a luminometer tube and the light read and the tube then replaced in a tube rack at room temperature. While the light reading was being taken, a 5 µl sample of the remaining reaction (which was kept at room temperature) was diluted into 495 µl of 50 mM BisTris, pH 6.5, 1 mg/ml BSA, 1 mM EDTA prechilled to 4°C and the tube mixed and placed on ice. The light produced by the samples in the luminometer tubes were re-read at 20, 40, 60, 90 and 120 minutes post enzyme addition. Additional 5 µl samples were taken and diluted as above at 60 and 120 minutes post enzyme addition. Once all these readings and samples were taken, 50 µl of the diluted samples was mixed with 50 µl of Steady Glo in luminometer tubes, the tubes incubated 10 minutes on ice then the light produced was read on a Turner TD 20/20 luminometer.

[2] = tested on: thermostable luciferase (Luc 146-1H2); experiment: Thermostable luciferase reaction with luciferin derivatives: light readings; format: biochemical
Method: as §1, §2
The following reactions were prepared (Table 47) Table 47
as §3

## O=C(O)[C@H]1CSC(c2nc3ccc(OCCCl)cc3s2)=N1 [L'in-CEE]
[1]; Substrate 6.25, + Co A & DTT, Time Sample Taken 0 min
  light values obtained upon addition of the diluted reaction samples into Steady Glo reagent: 1836
[1]; Substrate 6.25, + Co A & DTT, Time Sample Taken 60 min
  light values obtained upon addition of the diluted reaction samples into Steady Glo reagent: 1625
[1]; Substrate 6.25, + Co A & DTT, Time Sample Taken 120 min
  light values obtained upon addition of the diluted reaction samples into Steady Glo reagent: 1622
[1]; Substrate 6.25, + Co A, Time Sample Taken 0 min
  light values obtained upon addition of the diluted reaction samples into Steady Glo reagent: 1647
[1]; Substrate 6.25, + Co A, Time Sample Taken 60 min
  light values obtained upon addition of the diluted reaction samples into Steady Glo reagent: 976.8
[1]; Substrate 6.25, + Co A, Time Sample Taken 120 min
  light values obtained upon addition of the diluted reaction samples into Steady Glo reagent: 921.4
[1]; Substrate 6.25, + DTT, Time Sample Taken 0 min
  light values obtained upon addition of the diluted reaction samples into Steady Glo reagent: 1631
[1]; Substrate 6.25, + DTT, Time Sample Taken 60 min
  light values obtained upon addition of the diluted reaction samples into Steady Glo reagent: 1544
[1]; Substrate 6.25, + DTT, Time Sample Taken 120 min
  light values obtained upon addition of the diluted reaction samples into Steady Glo reagent: 1695
[1]; Substrate 6.25, Alone, Time Sample Taken 0 min
  light values obtained upon addition of the diluted reaction samples into Steady Glo reagent: 1402
[1]; Substrate 6.25, Alone, Time Sample Taken 60 min
  light values obtained upon addition of the diluted reaction samples into Steady Glo reagent: 1158
[1]; Substrate 6.25, Alone, Time Sample Taken 120 min
  light values obtained upon addition of the diluted reaction samples into Steady Glo reagent: 1073
[1]; Substrate 25, + Co A & DTT, Time Sample Taken 0 min
  light values obtained upon addition of the diluted reaction samples into Steady Glo reagent: 529.6
[1]; Substrate 25, + Co A & DTT, Time Sample Taken 60 min
  light values obtained upon addition of the diluted reaction samples into Steady Glo reagent: 1268
[1]; Substrate 25, + Co A & DTT, Time Sample Taken 120 min
  light values obtained upon addition of the diluted reaction samples into Steady Glo reagent: 1329
[1]; Substrate 25, + Co A, Time Sample Taken 0 min
  light values obtained upon addition of the diluted reaction samples into Steady Glo reagent: 1547
[1]; Substrate 25, + Co A, Time Sample Taken 60 min
  light values obtained upon addition of the diluted reaction samples into Steady Glo reagent: 777.5
[1]; Substrate 25, + Co A, Time Sample Taken 120 min
  light values obtained upon addition of the diluted reaction samples into Steady Glo reagent: 588.7
[1]; Substrate 25, + DTT, Time Sample Taken 0 min
  light values obtained upon addition of the diluted reaction samples into Steady Glo reagent: 1116
[1]; Substrate 25, + DTT, Time Sample Taken 60 min
  light values obtained upon addition of the diluted reaction samples into Steady Glo reagent: 1372
[1]; Substrate 25, + DTT, Time Sample Taken 120 min
  light values obtained upon addition of the diluted reaction samples into Steady Glo reagent: 1393
[1]; Substrate 25, Alone, Time Sample Taken 0 min
  light values obtained upon addition of the diluted reaction samples into Steady Glo reagent: 1345
[1]; Substrate 25, Alone, Time Sample Taken 60 min
  light values obtained upon addition of the diluted reaction samples into Steady Glo reagent: 973.4
[1]; Substrate 25, Alone, Time Sample Taken 120 min
  light values obtained upon addition of the diluted reaction samples into Steady Glo reagent: 860.3
[2]; substrate 6.25 (L'in-BE: 6.26), + Co A & DTT, Time 0 min
  light readings from the reaction samples: 77.35
[2]; substrate 6.25 (L'in-BE: 6.26), + Co A & DTT, Time 20 min
  light readings from the reaction samples: 7.958
[2]; substrate 6.25 (L'in-BE: 6.26), + Co A & DTT, Time 40 min
  light readings from the reaction samples: 3.656
[2]; substrate 6.25 (L'in-BE: 6.26), + Co A & DTT, Time 60 min
  light readings from the reaction samples: 2.312
[2]; substrate 6.25 (L'in-BE: 6.26), + Co A & DTT, Time 90 min
  light readings from the reaction samples: 1.414
[2]; substrate 6.25 (L'in-BE: 6.26), + Co A & DTT, Time 120 min
  light readings from the reaction samples: 1.134
[2]; substrate 6.25 (L'in-BE: 6.26), + Co A, Time 0 min
  light readings from the reaction samples: 1829
[2]; substrate 6.25 (L'in-BE: 6.26), + Co A, Time 20 min
  light readings from the reaction samples: 114
[2]; substrate 6.25 (L'in-BE: 6.26), + Co A, Time 40 min
  light readings from the reaction samples: 57.82
[2]; substrate 6.25 (L'in-BE: 6.26), + Co A, Time 60 min
  light readings from the reaction samples: 37.53
[2]; substrate 6.25 (L'in-BE: 6.26), + Co A, Time 90 min
  light readings from the reaction samples: 24.66
[2]; substrate 6.25 (L'in-BE: 6.26), + Co A, Time 120 min
  light readings from the reaction samples: 17.02
[2]; substrate 6.25 (L'in-BE: 6.26), + DTT, Time 0 min
  light readings from the reaction samples: 72.52
[2]; substrate 6.25 (L'in-BE: 6.26), + DTT, Time 20 min
  light readings from the reaction samples: 5.903
[2]; substrate 6.25 (L'in-BE: 6.26), + DTT, Time 40 min
  light readings from the reaction samples: 3.073
[2]; substrate 6.25 (L'in-BE: 6.26), + DTT, Time 60 min
  light readings from the reaction samples: 2.089
[2]; substrate 6.25 (L'in-BE: 6.26), + DTT, Time 90 min
  light readings from the reaction samples: 1.431
[2]; substrate 6.25 (L'in-BE: 6.26), + DTT, Time 120 min
  light readings from the reaction samples: 1.125
[2]; substrate 6.25 (L'in-BE: 6.26), Alone, Time 0 min
  light readings from the reaction samples: 121
[2]; substrate 6.25 (L'in-BE: 6.26), Alone, Time 20 min
  light readings from the reaction samples: 5.884
[2]; substrate 6.25 (L'in-BE: 6.26), Alone, Time 40 min
  light readings from the reaction samples: 3.316
[2]; substrate 6.25 (L'in-BE: 6.26), Alone, Time 60 min
  light readings from the reaction samples: 2.352
[2]; substrate 6.25 (L'in-BE: 6.26), Alone, Time 90 min
  light readings from the reaction samples: 1.569
[2]; substrate 6.25 (L'in-BE: 6.26), Alone, Time 120 min
  light readings from the reaction samples: 1.154
[2]; substrate 25, + Co A & DTT, Time 0 min
  light readings from the reaction samples: 57.98
[2]; substrate 25, + Co A & DTT, Time 20 min
  light readings from the reaction samples: 5.721
[2]; substrate 25, + Co A & DTT, Time 40 min
  light readings from the reaction samples: 3.272
[2]; substrate 25, + Co A & DTT, Time 60 min
  light readings from the reaction samples: 2.192
[2]; substrate 25, + Co A & DTT, Time 90 min
  light readings from the reaction samples: 1.379
[2]; substrate 25, + Co A & DTT, Time 120 min
  light readings from the reaction samples: 1.174
[2]; substrate 25, + Co A, Time 0 min
  light readings from the reaction samples: 489.2
[2]; substrate 25, + Co A, Time 20 min
  light readings from the reaction samples: 45.45
[2]; substrate 25, + Co A, Time 40 min
  light readings from the reaction samples: 25.08
[2]; substrate 25, + Co A, Time 60 min
  light readings from the reaction samples: 16.96
[2]; substrate 25, + Co A, Time 90 min
  light readings from the reaction samples: 11.03
[2]; substrate 25, + Co A, Time 120 min
  light readings from the reaction samples: 7.309
[2]; substrate 25, + DTT, Time 0 min
  light readings from the reaction samples: 56.59
[2]; substrate 25, + DTT, Time 20 min
  light readings from the reaction samples: 3.761
[2]; substrate 25, + DTT, Time 40 min
  light readings from the reaction samples: 2.196
[2]; substrate 25, + DTT, Time 60 min
  light readings from the reaction samples: 1.668
[2]; substrate 25, + DTT, Time 90 min
  light readings from the reaction samples: 1.274
[2]; substrate 25, + DTT, Time 120 min
  light readings from the reaction samples: 1.157
[2]; substrate 25, Alone, Time 0 min
  light readings from the reaction samples: 59.87
[2]; substrate 25, Alone, Time 20 min
  light readings from the reaction samples: 3.176
[2]; substrate 25, Alone, Time 40 min
  light readings from the reaction samples: 1.919
[2]; substrate 25, Alone, Time 60 min
  light readings from the reaction samples: 1.305
[2]; substrate 25, Alone, Time 90 min
  light readings from the reaction samples: 1.178
[2]; substrate 25, Alone, Time 120 min
  light readings from the reaction samples: 1.03
[2]; substrate 100, + Co A & DTT, Time 0 min
  light readings from the reaction samples: 25.41
[2]; substrate 100, + Co A & DTT, Time 20 min
  light readings from the reaction samples: 3.278
[2]; substrate 100, + Co A & DTT, Time 40 min
  light readings from the reaction samples: 2.027
[2]; substrate 100, + Co A & DTT, Time 60 min
  light readings from the reaction samples: 1.666
[2]; substrate 100, + Co A & DTT, Time 90 min
  light readings from the reaction samples: 1.27
[2]; substrate 100, + Co A & DTT, Time 120 min
  light readings from the reaction samples: 1.157
[2]; substrate 100, + Co A, Time 0 min
  light readings from the reaction samples: 97.88
[2]; substrate 100, + Co A, Time 20 min
  light readings from the reaction samples: 10.3
[2]; substrate 100, + Co A, Time 40 min
  light readings from the reaction samples: 7.127
[2]; substrate 100, + Co A, Time 60 min
  light readings from the reaction samples: 5.562
[2]; substrate 100, + Co A, Time 90 min
  light readings from the reaction samples: 3.969
[2]; substrate 100, + Co A, Time 120 min
  light readings from the reaction samples: 2.845
[2]; substrate 100, + DTT, Time 0 min
  light readings from the reaction samples: 22.47
[2]; substrate 100, + DTT, Time 20 min
  light readings from the reaction samples: 2.233
[2]; substrate 100, + DTT, Time 40 min
  light readings from the reaction samples: 1.292
[2]; substrate 100, + DTT, Time 60 min
  light readings from the reaction samples: 1.164
[2]; substrate 100, + DTT, Time 90 min
  light readings from the reaction samples: 1.093
[2]; substrate 100, + DTT, Time 120 min
  light readings from the reaction samples: 0.958
[2]; substrate 100, Alone, Time 0 min
  light readings from the reaction samples: 20.46
[2]; substrate 100, Alone, Time 20 min
  light readings from the reaction samples: 1.18
[2]; substrate 100, Alone, Time 40 min
  light readings from the reaction samples: 0.868
[2]; substrate 100, Alone, Time 60 min
  light readings from the reaction samples: 0.788
[2]; substrate 100, Alone, Time 90 min
  light readings from the reaction samples: 0.627
[2]; substrate 100, Alone, Time 120 min
  light readings from the reaction samples: 0.544
